Assay results: publication PMC3866151, “Phenylthiophenecarboxamide Antagonists of the Olfactory Receptor Co-Receptor Subunit from a Mosquito” (PLoS ONE, 2013)
Read-outs that look alike come from different tables or passages of the source.

Key:
Type in all cases: cell-based
Cqui\Orco+Cqui\Or21 [1] = target: T1, Cqui\Orco+Cqui\Or21 (Culex quinquefasciatus, UniProt Q309I4); assay: Antagonism of Orco agonist (OLC12) activation of the OR expressed in Xenopus oocytes, two-electrode voltage clamp; details: for Antagonist activity compared with the parent analog or OX1a (second screen): 30 µM compound; for Antagonist activity compared with the parent analog or OX1a (second screen) / Inhibition of the OLC12 response compared with OX1a (screen): 3 µM OLC12; for Inhibition of the OLC12 response compared with OX1a (screen): 100 µM compound; for IC50: read-out: IC50 for inhibition of Cqui\Orco+Cqui\Or21 activation by OLC12; for Mechanism of inhibition of Orco agonist (OLC12) activation: OLC12 raised from 3 µM to 30 µM
Experimental: (§1) Oocytes were surgically removed from mature Xenopus laevis frogs. Follicle cells were removed by treatment with Collagenase B (Boehringer Mannhem) for 2 hours at room temperature. Capped cRNA encoding each OR subunit was generated using mMessage mMachine kits (Ambion). For heteromeric ORs, 25 ng of cRNA encoding each OR subunit was injected into Stage V-VI Xenopus oocytes. For expression of Orco alone, 50 ng of cRNA was injected. Oocytes were incubated at 18°C in Barth's saline (in mM: 88 NaCl, 1 KCl, 2.4 NaHCO3, 0.3 CaNO3, 0.41 CaCl2, 0.82 MgSO4, 15 HEPES, pH 7.6, and 150 µg/ml ceftazidime) for 2–5 days prior to electrophysiological recording.
(§2) Odorant and Orco ligand induced currents were recorded under two-electrode voltage clamp, using an automated parallel electrophysiology system (OpusExpress 6000A; Molecular Devices). Oocytes were perfused with ND96 (in mM: 96 NaCl, 2 KCl, 1 CaCl2, 1 MgCl2, 5 HEPES, pH 7.5). Orco ligands were prepared as 50 or 100 mM stock solutions in DMSO and then diluted into ND96 on the day of the experiment. Unless otherwise noted, applications were for 60 sec at a flow rate of 1.0 ml/min, with extensive washing in ND96 at 4.6 ml/min between applications. For the concentration-response protocol in Figure 1d , applications were for 20 sec at a flow rate of 1.65 ml/min. Micropipettes were filled with 3 M KCl and had resistances of 0.2–2.0 MΩ. The holding potential was -70 mV. Current responses, filtered (4-pole, Bessel, low pass) at 20 Hz (-3 db) and sampled at 100 Hz, were captured and stored using OpusXpress 1.1 software (Molecular Devices).
(§3) To screen for antagonist activity, oocytes were exposed to 60 sec applications of OLC12 with 4 min washes between applications (Figures 1B, 3, 4 and 5A,C,E) or 60 sec applications of odorant with 20 min washes between applications (Figures 1C,D and 5B,D,F). Oocytes were then exposed to a 90 sec application of antagonist candidate, immediately followed by a 60 sec co-application of antagonist candidate and OLC12 or odorant. Oocytes were then exposed to a final 60 sec application of OLC12 or odorant. The current response in the presence of antagonist candidate was compared to the preceding responses to OLC12 or odorant alone.
(§4) Initial analysis of electrophysiological data was done using Clampfit 9.1 software (Molecular Devices). Curve fitting and statistical analyses were done using Prism 5 (Graphpad). Concentration-response data were fit to the equation: I = Imax/(1+(EC50/X)^n) where I represents the current response at a given concentration of odorant, X; Imax is the maximal response; EC50 is the concentration of agonist yielding a half maximal response; n is the apparent Hill coefficient. Concentration-inhibition data were fit to the equation: I = Imax / (1+ (X/IC50)^n) where I represents the current response at a given concentration of inhibitor, X; Imax is the maximal response in the absence of inhibitor; IC50 is the concentration of inhibitor present that still allows a half maximal response from odorant; n is the apparent Hill coefficient. Statistical significance was assessed using a two-tailed unpaired t test, an F test, or a one-way analysis of variance followed by the Dunnett's post-test, as appropriate.

Cqui\Orco+Cqui\Or21 [2] = target: T1, Cqui\Orco+Cqui\Or21; assay: Inhibition of odorant (3-methylindole) activation of the OR expressed in Xenopus oocytes, two-electrode voltage clamp; details: for IC50: read-out: IC50 for inhibition of responses to 3MI; for Mechanism of inhibition of odorant activation: 10 nM, 100 nM, 1 µM 3-methylindole
Experimental: as §1, §2, §3, §4

Cqui\Orco+Cqui\Or21 [3] = target: T1, Cqui\Orco+Cqui\Or21; assay: Agonist activation (concentration-response) of the OR expressed in Xenopus oocytes, two-electrode voltage clamp
Experimental: as §1, §2, §4

[4] = activated by 3 µM OLC12, Xenopus oocytes

T1 sequence (Q309I4 entry or part of it): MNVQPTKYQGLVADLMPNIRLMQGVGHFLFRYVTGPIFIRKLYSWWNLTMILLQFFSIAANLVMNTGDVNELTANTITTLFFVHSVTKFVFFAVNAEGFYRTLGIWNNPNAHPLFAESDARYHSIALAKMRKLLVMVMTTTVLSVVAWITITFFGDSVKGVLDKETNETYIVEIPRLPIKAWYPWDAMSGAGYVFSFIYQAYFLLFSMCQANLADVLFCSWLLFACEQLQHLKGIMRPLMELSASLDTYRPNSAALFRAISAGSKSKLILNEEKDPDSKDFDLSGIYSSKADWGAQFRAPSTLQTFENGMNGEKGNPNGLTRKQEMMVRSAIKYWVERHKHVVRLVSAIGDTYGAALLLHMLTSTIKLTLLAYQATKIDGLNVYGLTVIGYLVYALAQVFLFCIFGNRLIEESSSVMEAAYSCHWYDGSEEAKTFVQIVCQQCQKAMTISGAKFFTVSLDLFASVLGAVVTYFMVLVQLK

| nH (apparent Hill coefficient of concentration-inhibition curve) (Cqui\Orco+Cqui\Or21 [1]; [4]) | IC50 (Cqui\Orco+Cqui\Or21 [1]; [4]) [µM] | SMILES | Inhibition of the OLC12 response compared with OX1a (screen) (Cqui\Orco+Cqui\Or21 [1]) | other results |
| --- | --- | --- | --- | --- |
| 1.2 ± 0.1 | 7.2 ± 0.6 | Cc1cccc(C)c1NC(=O)c1sccc1Cl [OX1p, 3-chloro-N-(2,6-dimethylphenyl)-2-thiophenecarboxamide] |  | Antagonist activity compared with the parent analog or OX1a (second screen) (Cqui\Orco+Cqui\Or21 [1]): significant loss of antagonist activity |
| 0.9 ± 0.1 | 7.8 ± 0.9 | O=C(Nc1cccc(Cl)c1)c1sccc1Cl [OX1q, 3-chloro-N-(3-chlorophenyl)-2-thiophenecarboxamide] |  | Antagonist activity compared with the parent analog or OX1a (second screen) (Cqui\Orco+Cqui\Or21 [1]): well tolerated |
| 0.9 ± 0.1 | 5.4 ± 0.4 | CCc1ccccc1NC(=O)c1cccs1 [OX1j, N-(2-ethylphenyl)-2-thiophenecarboxamide] | significantly improved antagonist activity |  |
| 1.3 ± 0.1 | 14 ± 1 | CC(=O)c1cccc(NC(=O)c2cccs2)c1 [OX1i, N-(3-acetylphenyl)-2-thiophenecarboxamide] | significantly improved antagonist activity |  |
| 1.5 ± 0.1 | 3.8 ± 0.3 | Cc1cc(C)c(NC(=O)c2cccs2)c(C)c1 [OX1l, N-mesityl-2-thiophenecarboxamide] | significantly improved antagonist activity | IC50 (Cqui\Orco+Cqui\Or21 [2]; 10 nM 3MI): 17 ± 1 µM; Mechanism of inhibition of odorant activation (Cqui\Orco+Cqui\Or21 [2]): non-competitive mechanism; IC50 (Cqui\Orco+Cqui\Or21 [2]; 100 nM 3MI): 16 ± 1 µM; IC50 (Cqui\Orco+Cqui\Or21 [2]; 1 µM 3MI): 19 ± 2 µM; Mechanism of inhibition of Orco agonist (OLC12) activation (Cqui\Orco+Cqui\Or21 [1]): competitive mechanism; IC50 (Cqui\Orco+Cqui\Or21 [1]; activated by 10 µM OLC12): 8.3 ± 0.5 µM; IC50 (Cqui\Orco+Cqui\Or21 [1]; activated by 30 µM OLC12): 24 ± 3 µM |
| 0.9 ± 0.1 | 2.1 ± 0.3 | CCc1ccccc1NC(=O)C=Cc1cccs1 [OX4, N-(2-ethylphenyl)-3-(2-thienyl)-2-propenamide] |  | IC50 (Cqui\Orco+Cqui\Or21 [2]; 10 nM 3MI): 3.4 ± 0.6 µM; Mechanism of inhibition of odorant activation (Cqui\Orco+Cqui\Or21 [2]): non-competitive mechanism; IC50 (Cqui\Orco+Cqui\Or21 [2]; 100 nM 3MI): 2.7 ± 0.4 µM; IC50 (Cqui\Orco+Cqui\Or21 [2]; 1 µM 3MI): 2.5 ± 0.3 µM; Antagonist activity compared with the parent analog or OX1a (second screen) (Cqui\Orco+Cqui\Or21 [1]): well tolerated; Mechanism of inhibition of Orco agonist (OLC12) activation (Cqui\Orco+Cqui\Or21 [1]): competitive mechanism; IC50 (Cqui\Orco+Cqui\Or21 [1]; activated by 10 µM OLC12): 8.8 ± 1.2 µM; IC50 (Cqui\Orco+Cqui\Or21 [1]; activated by 30 µM OLC12): 73 ± 5 µM |

Continued, compound first:

| SMILES | nH (apparent Hill coefficient of concentration-inhibition curve) (Cqui\Orco+Cqui\Or21 [1]; [4]) | IC50 (Cqui\Orco+Cqui\Or21 [1]; [4]) [µM] | Inhibition of the OLC12 response compared with OX1a (screen) (Cqui\Orco+Cqui\Or21 [1]) | other results |
| --- | --- | --- | --- | --- |
| CCCC(=O)c1ccc(NC(=O)c2cccs2)cc1 [OX1s, N-(4-butyrylphenyl)-2-thiophenecarboxamide] |  |  |  | Antagonist activity compared with the parent analog or OX1a (second screen) (Cqui\Orco+Cqui\Or21 [1]): significant loss of antagonist activity |
| O=C(Nc1cccc(Br)c1)c1cccs1 [OX1f, N-(3-bromophenyl)-2-thiophenecarboxamide] |  |  | significant improvement |  |
| COc1cccc(NC(=O)c2cccs2)c1 [OX1h, N-(3-methoxyphenyl)-2-thiophenecarboxamide] |  |  | significantly improved antagonist activity |  |
| COc1ccc(NC(=O)c2cccs2)cc1 [OX1e, N-(4-methoxyphenyl)-2-thiophenecarboxamide] |  |  | significantly improved antagonist activity |  |
| Cc1ccc(NC(=O)c2cccs2)cc1 [OX1b, N-(4-methylphenyl)-2-thiophenecarboxamide] |  |  | significantly improved antagonist activity |  |
| CCC(=O)c1ccc(NC(=O)c2cccs2)cc1 [OX1r, N-(4-propionylphenyl)-2-thiophenecarboxamide] |  |  |  | Antagonist activity compared with the parent analog or OX1a (second screen) (Cqui\Orco+Cqui\Or21 [1]): significant loss of antagonist activity |
| O=C(NC1CCCCC1)c1cccs1 [OX2, N-cyclohexyl-2-thiophenecarboxamide] |  |  | failed to significantly improve antagonist activity |  |
| CCN(C(=O)c1cccs1)c1ccccc1 [OX1n, N-ethyl-N-phenyl-2-thiophenecarboxamide] |  |  | improved antagonist activity |  |
| O=C(Nc1ccc(Br)cc1)c1cccs1 [OX1d, N-(4-bromophenyl)-2-thiophenecarboxamide] |  |  | failed to significantly improve antagonist activity |  |
| Cc1cccc(NC(=O)c2cccs2)c1 [OX1c, N-(3-methylphenyl)-2-thiophenecarboxamide] |  |  | significantly improved antagonist activity |  |
| Cc1ccc(CNC(=O)c2cccs2)cc1 [OX3a, N-(4-methylbenzyl)-2-thiophenecarboxamide] | 1.0 ± 0.1 | 1.7 ± 0.2 | improved antagonist activity | IC50 (Cqui\Orco+Cqui\Or21 [2]; 10 nM 3MI): 2.6 ± 0.3 µM; Mechanism of inhibition of odorant activation (Cqui\Orco+Cqui\Or21 [2]): non-competitive mechanism; IC50 (Cqui\Orco+Cqui\Or21 [2]; 100 nM 3MI): 2.3 ± 0.2 µM; IC50 (Cqui\Orco+Cqui\Or21 [2]; 1 µM 3MI): 1.9 ± 0.1 µM; Mechanism of inhibition of Orco agonist (OLC12) activation (Cqui\Orco+Cqui\Or21 [1]): competitive mechanism; IC50 (Cqui\Orco+Cqui\Or21 [1]; activated by 10 µM OLC12): 12 ± 1 µM; IC50 (Cqui\Orco+Cqui\Or21 [1]; activated by 30 µM OLC12): 28 ± 2 µM |
| O=C(NCc1ccccc1)c1cccs1 [OX3b, N-benzyl-2-thiophenecarboxamide] | 1.1 ± 0.1 | 5.1 ± 0.5 |  | Antagonist activity compared with the parent analog or OX1a (second screen) (Cqui\Orco+Cqui\Or21 [1]): well tolerated |
| CCn1c(SCC(=O)Nc2ccc(C(C)C)cc2)nnc1-c1ccncc1 [OLC12, 2-((4-ethyl-5-(4-pyridinyl)-4H-1,2,4-triazol-3-yl)sulfanyl)-N-(4-isopropylphenyl)-acetamide] |  |  |  | nH for OLC12 activation of Cqui\Orco+Cqui\Or21 (Cqui\Orco+Cqui\Or21 [3]): 1.42 ± 0.32; EC50 (Cqui\Orco+Cqui\Or21 [3]; read-out: EC50 for OLC12 activation of Cqui\Orco+Cqui\Or21): 6.6 ± 1.4 µM |
| CCc1ccc(NC(=O)c2cccs2)cc1 [OX1a, N-(4-ethylphenyl)-2-thiophenecarboxamide] | 1.0 ± 0.1 | 51 ± 6 |  | IC50 (Cqui\Orco+Cqui\Or21 [2]; 10 nM 3MI): 47 ± 5 µM; Mechanism of inhibition of odorant activation (Cqui\Orco+Cqui\Or21 [2]): non-competitive mechanism; IC50 (Cqui\Orco+Cqui\Or21 [2]; 100 nM 3MI): 42 ± 7 µM; IC50 (Cqui\Orco+Cqui\Or21 [2]; 1 µM 3MI): 50 ± 4 µM; Effect on maximal response to 3-methylindole (Cqui\Orco+Cqui\Or21 [2]; 50 µM OX1a co-applied): significantly reduced; Mechanism of inhibition of Orco agonist (OLC12) activation (Cqui\Orco+Cqui\Or21 [1]): competitive antagonist |
| O=C(Nc1cccc(Cl)c1)c1cccs1 [OX1g, N-(3-cholorphenyl)-2-thiophenecarboxamide] | 1.0 ± 0.1 | 13 ± 1 | significant improvement |  |
| Cc1cccc(NC(=O)c2cccs2)c1C [OX1k, N-(2,3-dimethylphenyl)-2-thiophenecarboxamide] | 0.8 ± 0.1 | 1.7 ± 0.2 | significantly improved antagonist activity |  |
| Cc1ccc(NC(=O)c2sccc2Cl)c(C)c1 [OX1o, 3-chloro-N-(2,4-dimethylphenyl)-2-thiophenecarboxamide] | 1.1 ± 0.1 | 5.5 ± 0.7 |  | Antagonist activity compared with the parent analog or OX1a (second screen) (Cqui\Orco+Cqui\Or21 [1]): significant loss of antagonist activity |
| Cc1cccc(NC(=O)c2sccc2Cl)c1 [OX1m, 3-chloro-N-(3-methylphenyl)-2-thiophenecarboxamide] |  |  | improved antagonist activity |  |
| Cc1c[nH]c2ccccc12 [Compound 3MI, 3-methylindole] |  |  |  | EC50 (Cqui\Orco+Cqui\Or21 [3]; 3MI alone, read-out: EC50 for activation of Cqui\Orco+Cqui\Or21 by 3MI): 0.032 ± 0.007 µM; EC50 (Cqui\Orco+Cqui\Or21 [3]; in presence of 50 µM OX1a, read-out: EC50 for 3MI activation of Cqui\Orco+Cqui\Or21): 0.037 ± 0.007 µM |
